# Results taken from patent publication US4268505A, “Pharmaceutical composition comprising a nitrogen-containing polysaccharide and an antibiotic agent, and a method of treating an infectious disease therewith” (priority 1979, dated 1981).
# Legend:
# [1] = tested on: Escherichia coli; assay: Minimum growth inhibiting concentration, agar plate method; format: cell-based; conditions: for Minimum growth inhibiting concentration: strain resistant to the respective drug
# Experimental: (§1) The drug-resistant strains of bacterial species were obtained in the manner described below according to the concentration gradient plate culture (see "Chemotherapeutics and Resistant Bacteria", 1970, By Chikara Watanabe, Asakura Shoten).
# (§2) The agar plates with drug concentration gradient ranging from 10 to 100 μg/ml were prepared, and each strain of the bacterial species to be tested was streaked or smeared. These plates were kept at 37° C. for several days and the colony formed in the high concentration area was isolated and again similarly inoculated to the plates. Such operation was repeated several times to obtain the bacterial strains resistant to the respective drugs.
# (§3) The drug sensitivity of the drug-resistant strains and that of the original strains (sensitive strains) were compared by way of the minimum growth inhibiting concentration (hereinafter abbreviated as MIC) according to the Standard Method of the Japanese Chemotherapeutical Association (see "Chemotherapy" Vol. 22, No. 6, 1126 (1974), by MIC Determination Method Reform Committee). More specifically, double diluted systems of each drug were prepared and they were mixed with the heart-infusion agar medium (Nippon Eiyo Kagaku Co., Ltd.) to form the agar plates. Then a loopful of each strain, which had been cultured at 37° C. in Trypto-soy bouillon (Nippon Eiyo Kagaku Co., Ltd.) for 18 hr. was smeared on each the plate, and after culturing for 18 hr. at 37° C., the growth of the strain on each plate was examined.
# (§4) MIC has apparently been reduced to half the level or less before addition of the present substance as will be seen in Table 3 of EXAMPLE 1. The amount of the present substance added is more than 10 μg/ml, preferably more than 100 μg/ml. The pH of the medium was maintained at 7.2±0.1 so that MIC would not be affected by pH of the medium.
# (§5) Specimens of the drug-resistant bacterial strain were obtained according to the aforementioned concentration-gradient plate culture by using Staphylococcus aureus, Streptococcus faecalis, Escherichia coli, Salmonella enteritidis, Klebsiella pneumoniae and Pseudomonas aeruginosa. The MICs of the original bacterial strains and those of the bacterial strains which have developed resistance to the respective antibiotics are summarized in Table 2.
# [2] = tested on: Streptococcus faecalis; assay: as above; format: cell-based; conditions: for Minimum growth inhibiting concentration: strain resistant to the respective drug
# Experimental: as §1, §2, §3, §4, §5
# [3] = tested on: Salmonella enteritidis; assay: as above; format: cell-based; conditions: for Minimum growth inhibiting concentration: strain resistant to the respective drug
# Experimental: as §1, §2, §3, §4, §5
# [4] = tested on: Staphylococcus aureus; assay: as above; format: cell-based; conditions: for Minimum growth inhibiting concentration: strain resistant to the respective drug
# Experimental: as §1, §2, §3
# (§6) The amount of the present substance added is more than 10 μg/ml, preferably more than 100 μg/ml. The pH of the medium was maintained at 7.2±0.1 so that MIC would not be affected by pH of the medium.
# (§7) Specimens of the drug-resistant bacterial strain were obtained according to the aforementioned concentration-gradient plate culture by using Staphylococcus aureus, Streptococcus faecalis, Escherichia coli, Salmonella enteritidis, Klebsiella pneumoniae and Pseudomonas aeruginosa.
# [5] = tested on: Klebsiella pneumoniae; assay: as above; format: cell-based; conditions: for Minimum growth inhibiting concentration: strain resistant to the respective drug
# Experimental: as §1, §2, §3, §6, §7
# [6] = tested on: colistin-resistant strain of Pseudomonas aeruginosa; assay: Therapeutical test in mice infected with colistin-resistant Pseudomonas aeruginosa (Example 8); format: in vivo, male ICR-JCL mice; conditions: single colistin 190 mg/kg i.p., 6 days after administration
# Experimental: A quarter milli-liter of a suspension of the colistin-resistant strain of Pseudomonas aeruginosa cultured by the same procedure in Example 1 in Trypto-soy bouillon (see Example 2) including 5% of mucin was intraperitoneally inoculated to each mouse of 2 groups of male ICR-JCL mice (body weight: 22±1 g, 10 mice a group) at the rate of 1×10^8 cells/mouse. […] The present substance obtained by the same procedure as in Example 6 was also orally administered at a dose of 1,500 mg/kg.
# [7] = tested on: Pseudomonas aeruginosa; assay: Minimum growth inhibiting concentration, agar plate method; format: cell-based; conditions: for Minimum growth inhibiting concentration: strain resistant to the respective drug
# Experimental: as §1, §2, §3, §6, §7
# [8] = tested on: Streptococcus faecalis resistant to erythromycin; assay: Therapeutical treatment of mice infected with erythromycin-resistant Streptococcus faecalis (Example 9); format: in vivo, male ICR-JCL mice; conditions: only erythromycin 50 mg/kg oral, 7th day
# Experimental: Experiments of therapeutical treatment of animals infected with an erythromycin-resistant bacterial strain were carried out using the present substance, i.e., a nitrogen-containing polysaccharide prepared by the procedures described in Example 1.
# After keeping the mice under usual conditions for 6 days, the rate of survival of each mouse was observed on 7th day.
# [9] = tested on: Shigella sonnei; assay: Minimum growth inhibiting concentration, agar plate method; format: cell-based; conditions: for Minimum growth inhibiting concentration: strain resistant to the respective drug
# [10] = tested on: kanamycin-resistant strain of Shigella sonnei; assay: Therapeutical treatment of mice infected with kanamycin-resistant Shigella sonnei (Example 10); format: in vivo, male ICR-JCL mice; conditions: only kanamycin 20 mg/kg i.p., 7th day
# Experimental: Similar experiments of therapeutical treatment as in Example 9 was performed by using the present substance obtained by the procedures described in Example 1.
# A kanamycin-resistant strain of Shigella sonnei obtained by the procedures described in Example 1 was intraperitoneally inoculated to the two groups (each group comprising 10 animals) of male ICR-JCL mice at a rate of 1×10^8 cells/mouse, and after 2 hours of the inoculation, 20 mg/kg of kanamycin was intraperitoneally administered to the mice of one group, and 100 mg/kg of the present substance and 20 mg/kg of kanamycin were almost simultaneously administered to the mice of another group. After keeping the mice under usual conditions for 6 days. Their rate of survival was observed on 7th day.
# [11] = tested on: Enterobacter aerogenes; assay: Minimum growth inhibiting concentration, agar plate method; format: cell-based; conditions: for Minimum growth inhibiting concentration: strain resistant to the respective drug
# [12] = strain resistant to the respective antibiotic (Table 2)
# [13] = present substance added at 100 μg/ml
# [14] = present substance not added (Table 3)
# [15] = present substance added at 1000 μg/ml
molecule,measurement,setting,value
"CN(C)[C@@H]1C(O)=C(C(N)=O)C(=O)[C@@]2(O)C(O)=C3C(=O)c4c(O)cccc4[C@@](C)(O)[C@H]3C[C@@H]12 [TC, Tetracycline]",Minimum growth inhibiting concentration (MIC),[1]; original strain,3.1 µg/mL
same,Minimum growth inhibiting concentration (MIC),[1]; [12],25 µg/mL
same,Minimum growth inhibiting concentration,[1]; [13],6.3 µg/mL
same,Minimum growth inhibiting concentration,[1]; [14],25 µg/mL
same,Minimum growth inhibiting concentration (MIC),[2]; original strain,0.4 µg/mL
same,Minimum growth inhibiting concentration (MIC),[2]; [12],25 µg/mL
same,Minimum growth inhibiting concentration,[2]; [13],6.3 µg/mL
same,Minimum growth inhibiting concentration,[2]; [14],25 µg/mL
same,Minimum growth inhibiting concentration (MIC),[3]; original strain,1.6 µg/mL
same,Minimum growth inhibiting concentration (MIC),[3]; [12],12.5 µg/mL
same,Minimum growth inhibiting concentration,[3]; [13],6.3 µg/mL
same,Minimum growth inhibiting concentration,[3]; [14],12.5 µg/mL
same,Minimum growth inhibiting concentration (MIC),[4]; original strain,0.8 µg/mL
same,Minimum growth inhibiting concentration (MIC),[4]; [12],25 µg/mL
same,Minimum growth inhibiting concentration,[4]; [13],3.2 µg/mL
same,Minimum growth inhibiting concentration,[4]; [14],25 µg/mL
same,Minimum growth inhibiting concentration (MIC),[5]; original strain,1.6 µg/mL
same,Minimum growth inhibiting concentration (MIC),[5]; [12],25 µg/mL
same,Minimum growth inhibiting concentration,[5]; [13],12.5 µg/mL
same,Minimum growth inhibiting concentration,[5]; [14],25 µg/mL
Colistin [CL],rate of survival,[6],40%
same,Minimum growth inhibiting concentration (MIC),[7]; [12],200 µg/mL
same,Minimum growth inhibiting concentration,[7]; [15],100 µg/mL
same,Minimum growth inhibiting concentration,[7]; [14],200 µg/mL
"CC[C@H]1OC(=O)[C@H](C)[C@@H](O[C@H]2C[C@@](C)(OC)[C@@H](O)[C@H](C)O2)[C@H](C)[C@@H](O[C@@H]2O[C@H](C)C[C@H](N(C)C)[C@H]2O)[C@](C)(O)C[C@@H](C)C(=O)[C@H](C)[C@@H](O)[C@]1(C)O [EM, Erythromycin]",Minimum growth inhibiting concentration (MIC),[1]; original strain,> 100 µg/mL
same,Minimum growth inhibiting concentration (MIC),[3]; original strain,> 100 µg/mL
same,rate of survival,[8],50%
same,Minimum growth inhibiting concentration (MIC),[4]; original strain,0.4 µg/mL
same,Minimum growth inhibiting concentration,[4]; [15],3.2 µg/mL
same,Minimum growth inhibiting concentration (MIC),[5]; [12],> 100 µg/mL
"NC[C@H]1O[C@H](O[C@H]2[C@H](O)[C@@H](O[C@H]3O[C@H](CO)[C@@H](O)[C@H](N)[C@H]3O)[C@H](N)C[C@@H]2N)[C@H](O)[C@@H](O)[C@@H]1O [KM, Kanamycin]",Minimum growth inhibiting concentration (MIC),[1]; original strain,6.3 µg/mL
same,Minimum growth inhibiting concentration (MIC),[1]; [12],200 µg/mL
same,Minimum growth inhibiting concentration,[1]; [15],50 µg/mL
same,Minimum growth inhibiting concentration,[1]; [14],200 µg/mL
same,Minimum growth inhibiting concentration (MIC),[9]; original strain,3.1 µg/mL
same,Minimum growth inhibiting concentration (MIC),[9]; [12],50 µg/mL
same,Minimum growth inhibiting concentration,[9]; [15],12.5 µg/mL
same,Minimum growth inhibiting concentration,[9]; [14],50 µg/mL
same,rate of survival,[10],30%
same,Minimum growth inhibiting concentration (MIC),[11]; original strain,3.1 µg/mL
same,Minimum growth inhibiting concentration (MIC),[11]; [12],100 µg/mL
same,Minimum growth inhibiting concentration,[11]; [15],12.5 µg/mL
same,Minimum growth inhibiting concentration,[11]; [14],100 µg/mL
